From US7138425B2, “Phthalimide carboxylic acid derivatives” (Oxford Glycoscience (UK) Ltd., priority 2002, dated 2006)
pIC50: −log10 of the molar value.

Experiments:
[1] = tested on: human endothelial cells; test: Angiogenesis assay (AngioKit, tubule formation, PECAM-1 staining); assay type: cell-based; details: Endothelial cell, 264 h, AngioKit co-culture, tubule formation on day 11, PECAM-1 staining relative to untreated control, read-out: Inhibition of angiogenesis (IC50)
Text: A commercial angiogenesis assay for analysing the angiogenic or anti-angiogenic properties of test compounds (AngioKit catalogue no. ZHA-1000, TCS CellWorks Ltd, Buckingham, U.K) was used. In this assay, human endothelial cells were co-cultured with other human cells in a specifically designed medium. The endothelial cells initially form small islands within the culture matrix. They subsequently proliferate and then enter a migratory phase during which they move through the matrix to form threadlike tubule structures. These gradually join up (by 12–14 days) to form networks of […] tubules which closely resemble a capillary bed structure. These tubules stain positive for von Willebrand's Factor, Platelet Endothelial Cell Adhesion Molecule-1 (PECAM-1 or CD31) and Intercellular Adhesion Molecule-2 (ICAM-2).
The assay is supplied as growing cultures at the earliest stage of tubule formation in a 24 well plate format It is designed so that test compounds and conditioned media can be added to the cultures within individual wells. The resulting effect on tubule formation can then be monitored. Positive and negative test agents are provided in the kit, e.g. Vascular Endothelial Growth Factor (VEGF) and sumarin. All reagents were included as part of the kit and the assay was performed according to the protocol supplied by TCS CellWorks Ltd. Briefly, on day 1, fresh growth medium, medium plus control agent or medium plus test compound was added to the cells and the cultures were incubated at 37° C., 5% CO2. […] The specified medium was changed at days 4, 7 and 9 and the cells were monitored for growth. On day 11, the cells were washed with Dulbecco's Phosphate-Buffered Saline (PBS) and fixed using 70% ethanol (−20° C.) for 30 min at room temperature. After fixing, the cells were washed and treated with blocking buffer, 1% BSA in PBS. The cells were stained for PECAM-1 on the same day, following standard immunohistochemistry procedures well known to those skilled in the art, using mouse anti-human CD31 as the primary antibody and a goat anti-mouse IgG alkaline phosphate conjugate. Tubule formation was quantitatively assessed by measuring PECAM-1 positive staining using the image analysis program “Matrox inspector” to evaluate the percentage tubule staining relative to an untreated control.

[2] = molecular target: T1, human heparanase (Homo sapiens, UniProt Q9Y251); test: Heparanase assay (bFGF binding to heparan sulfate, plate ELISA); assay type: biochemical; details: human heparanase expressed in insect cells, pH 5.5, 2 h at 37° C.; read-out: Inhibition of Heparanase (IC50)
T1 construct: made in house; host or cells: insect cells
T1 sequence (Q9Y251 158-543 limits assumed): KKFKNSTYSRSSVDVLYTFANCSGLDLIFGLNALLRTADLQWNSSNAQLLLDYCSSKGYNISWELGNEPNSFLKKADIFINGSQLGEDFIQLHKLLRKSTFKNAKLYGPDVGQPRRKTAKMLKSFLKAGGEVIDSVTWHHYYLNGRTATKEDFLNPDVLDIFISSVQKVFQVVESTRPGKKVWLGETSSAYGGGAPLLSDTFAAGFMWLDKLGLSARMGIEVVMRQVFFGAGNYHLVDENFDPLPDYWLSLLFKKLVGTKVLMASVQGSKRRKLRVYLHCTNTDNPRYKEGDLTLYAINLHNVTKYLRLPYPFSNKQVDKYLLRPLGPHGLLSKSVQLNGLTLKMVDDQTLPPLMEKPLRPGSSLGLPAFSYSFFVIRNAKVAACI
T1 sequence (Q9Y251 36-109 limits assumed): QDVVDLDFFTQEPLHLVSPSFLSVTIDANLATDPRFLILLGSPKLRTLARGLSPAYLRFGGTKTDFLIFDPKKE
Method: The assay is based upon the specific binding of basic fibroblast growth factor (bFGF) to heparan sulfate. […] Heparan sulfate will ordinarly adhere to plastic well plate surfaces. Following cleavage of high molecular weight heparan sulfate by heparanase, the smaller material generated will no longer adhere to the surface of a well plate. Thus, upon addition to the plate of bFGF, heparanase activity can be followed as a reduction in bFGF binding.
Nunc Maxisorp 96-well plates are coated for 16 h at room temperature with 100 μl/well 0.04 mg/ml heparan sulfate in PBS. The wells are then aspirated and blocked for 1 h with 200 μl/well 1% BSA-PBS. Following five washes with 0.01% BSA, 0.05% Tween20 PBS (wash buffer), 100 μl of recombinant human basic FGF (90 ng/ml in 0.1% BSA/PBS) is added per well and the plate is incubated at room temperature for 1 h.
The human heparanase used is expressed in insect cells. The wells are washed again with wash buffer and 100 μl of bFGF antibody-horse radish peroxidase conjugate is added. The plate is then incubated at room temperature for 1 h and subsequently washed five times with wash buffer. 100 μl of TMB peroxidase substrate is added and the colour allowed to develop for 10 min. The reaction is stopped with 50 μl 1M H2SO4 and the colour intensity is read at 450 nm on a plate reader.

| pIC50 [1] | pIC50 [2] | SMILES |
| --- | --- | --- |
| 6.00 | 6.30 | COc1ccc(-c2nc3cc(-c4cc5ccccc5o4)ccc3o2)cc1N1C(=O)c2ccc(C(=O)O)cc2C1=O [Example 15, 2-[2-Methoxy-5-[5-(benzofuran-2-yl)benzoxazol-2-yl]phenyl]-1,3-dioxo-2,3-dihydro-1H-isoindole-5-carboxylic acid] |
| 5.70 | 6.30 | CCCNc1ccc(N2C(=O)c3ccc(C(=O)O)cc3C2=O)cc1-c1nc2cc(-c3cc4ccccc4o3)ccc2o1 [Example 108, 2-[4-Propylamino-3-[5-(2-benzofuranyl)benzoxazol-2-yl]phenyl]-1,3-dioxo-2,3-dihydro-1H-isoindole-5-carboxylic acid] |
| 5.70 | 6.10 | CCCNc1ccc(N2C(=O)c3ccc(C(=O)O)cc3C2=O)cc1-c1nc2ccc(F)cc2o1 [Example 66, 2-[3-(6-Fluorobenzoxazol-2-yl)-4-propylaminophenyl]-1,3-dioxo-2,3-dihydro-1H-isoindole-5-carboxylic acid] |
| 6.30 | 6.30 | CCCNc1ccc(N2C(=O)c3ccc(C(=O)O)cc3C2=O)cc1-c1nc2cc(Br)cc(F)c2o1 [Example 71, 2-[3-(5-Bromo-7-fluorobenzoxazol-2-yl)-4-propylaminophenyl]-1,3-dioxo-2,3-dihydro-1H-isoindole-5-carboxylic acid] |
| 5.30 | 6.10 | CCCNc1ccc(N2C(=O)c3ccc(C(=O)O)cc3C2=O)cc1-c1nc2ccc(C)cc2o1 [Example 65, 2-[3-(6-Methylbenzoxazol-2-yl)-4-propylaminophenyl]-1,3-dioxo-2,3-dihydro-1H-isoindole-5-carboxylic acid] |
| 5.30 | 6.15 | O=C(O)c1ccc2c(c1)C(=O)N(c1cccc(-c3nc4cc5ccccc5cc4o3)c1)C2=O [Example 2, 2-[3-(Naphth[2,3-d]oxazol-2-yl)phenyl]-2,3-dihydro-1,3-dioxo-1H-isoindole-5-carboxylic acid] |
| 6.70 | 6.40 | COc1ccc(-c2nc3cc(-c4cc5ccccc5s4)ccc3o2)cc1N1C(=O)c2ccc(C(=O)O)cc2C1=O [Example 92, 2-[2-Methoxy-5-[5-(2-benzothiophenyl)benzoxazol-2-yl]phenyl]-1,3-dioxo-2,3-dihydro-1H-isoindole-5-carboxylic acid] |
| 5.30 | 6.22 | CCCNc1ccc(N2C(=O)c3ccc(C(=O)O)cc3C2=O)cc1-c1nc2cc(-c3cc4ccccc4s3)ccc2o1 [Example 110, 2-[4-Propylamino-5-[5-(2-benzothiophenyl)benzoxazol-2-yl]phenyl]-1,3-dioxo-2,3-dihydro-1H-isoindole-5-carboxylic acid] |
| 5.70 | 6.10 | COc1ccc(-c2nc3cc(-c4ccc(N(C)C)cc4)ccc3o2)cc1N1C(=O)c2ccc(C(=O)O)cc2C1=O [Example 97, 2-[2-Methoxy-5-[5-(4-N,N-dimethylaminophenyl)benzoxazol-2-yl]phenyl]-1,3-dioxo-2,3-dihydro-1H-isoindole-5-carboxylic acid] |

| SMILES | pIC50 [1] | pIC50 [2] |
| --- | --- | --- |
| CCCNc1ccc(N2C(=O)c3ccc(C(=O)O)cc3C2=O)cc1-c1nc2cc(-c3ccc(OC(F)(F)F)cc3)ccc2o1 [Example 116, 2-[4-Propylamino-5-[5-(4-trifluoromethoxy)phenylbenzoxazol-2-yl]phenyl]-1,3-dioxo-2,3-dihydro-1H-isoindole-5-carboxylic acid] | 7.00 |  |
| CCCNc1ccc(N2C(=O)c3ccc(C(=O)O)cc3C2=O)cc1-c1nc2cc(-c3ccc(Cl)cc3)ccc2o1 [Example 112, 2-[4-Propylamino-5-[5-(4-chlorophenyl)benzoxazol-2-yl]phenyl]-1,3-dioxo-2,3-dihydro-1H-isoindole-5-carboxylic acid] | 5.70 |  |
| CCCNc1ccc(N2C(=O)c3ccc(C(=O)O)cc3C2=O)cc1-c1nc2cc(-c3ccc(F)cc3)ccc2o1 [Example 115, 2-[4-Propylamino-5-[5-(4-fluorophenyl)benzoxazol-2-yl]phenyl]-1,3-dioxo-2,3-dihydro-1H-isoindole-5-carboxylic acid] | 6.60 |  |
| COc1ccc(-c2nc3cc(-c4ccccc4)ccc3o2)cc1N1C(=O)c2ccc(C(=O)O)cc2C1=O [Example 9, 2-[2-Methoxy-5-(5-phenylbenzoxazol-2-yl)phenyl]-1,3-dioxo-2,3-dihydro-1H-isoindole-5-carboxylic acid] | 6.00 |  |
| COc1ccc(N2C(=O)c3ccc(C(=O)O)cc3C2=O)cc1-c1nc2cc(-c3ccc4c(c3)OCO4)ccc2o1 [Example 105, 2-[4-Methoxy-5-[5-(3,4-methylenedioxyphenyl)benzoxazol-2-yl]phenyl]-1,3-dioxo-2,3-dihydro-1H-isoindole-5-carboxylic acid] | 5.52 |  |
| COc1ccc(-c2ccc3oc(-c4ccc(OC)c(N5C(=O)c6ccc(C(=O)O)cc6C5=O)c4)nc3c2)cc1 [Example 27, 2-[2-Methoxy-5-[5-(4-methoxy)phenylbenzoxazol-2-yl]phenyl]-1,3-dioxo-2,3-dihydro-1H-isoindole-5-carboxylic acid] | 4.82 |  |
| O=C(O)c1ccc2c(c1)C(=O)N(c1cccc(-c3nc4ccccc4o3)c1)C2=O [Example 1, 2-[3-(Benzoxazol-2-yl)phenyl]-2,3-dihydro-1,3-dioxo-1H-isoindole-5-carboxylic acid] | 4.40 |  |
| COc1ccc(N2C(=O)c3ccc(C(=O)O)cc3C2=O)cc1-c1nc2cc(-c3cc(F)cc(F)c3)ccc2o1 [Example 104, 2-[4-Methoxy-5-[5-(3,5-difluorophenyl)benzoxazol-2-yl]phenyl]-1,3-dioxo-2,3-dihydro-1H-isoindole-5-carboxylic acid] | 6.12 |  |
